{"source": "patent US7022311B1", "about": "“Powdery inhalational preparations and process for producing the same” (Kaken Pharmaceutical Co., Ltd., priority 1999, dated 2006)", "key": {"[1]": {"assay": "In vitro lung delivery fraction test with multi-stage cascade impactor (Andersen sampler, Jethaler)", "format": "physicochemical", "conditions": "28.3 L/min; for Residual and Distributed Fractions of Active Ingredient: Capsule / Residual and Distributed Fractions of Active Ingredient: Inhaler device / Residual and Distributed Fractions of Active Ingredient: Stage 0 / Residual and Distributed Fractions of Active Ingredient: Stage 1 / Residual and Distributed Fractions of Active Ingredient: Stages 2–7 / Residual and Distributed Fractions of Active Ingredient: Throat / Capsule, residual active ingredient / Inhaler device, residual active ingredient / Stage 0, distribution of active ingredient / Stage 1, distribution of active ingredient / Stages 2–7, lung delivery fraction / Throat, distribution of active ingredient: S-36496 10%", "protocol": "Capsulated preparations (The Japanese Pharmacopeia No. 2 HPMC capsules: manufactured by Shionogi Qualicaps Co., Ltd.) which were filled with about 40 mg each of three dry powder inhalations were prepared and mounted on an inhaler device (Jethaler; Unisia Jecs Corp.) The Jethaler was then attached to the mouthpiece of a cascade impactor (Andersen sampler Model AN-200) and inspired at a flow rate of 28.3 L/min., thereby dispersing the micronized medication in the capsule and measuring the residual active ingredient in the capsule and in the inhaler device as well as the distribution of the active ingredient at each stage with liquid chromatography. It was confirmed that in the in vitro test with cascade impactor, the lung delivery fraction at stages 2–7 corresponding to the respiring fraction differed substantially depending on the different carrier particles.\n(§1) Capsulated preparations (The Japanese Pharmacopeia No. 2HPMC capsules: manufactured by Shionogi Qualicaps Co., Ltd.), which were filled with about 40 mg each of three dry powder inhalations, were prepared and mounted on an inhaler device (Jethaler®; Unisia Jecs Corp.). The Jethaler® brand device was then attached to the mouthpiece of a cascade impactor (Andersen sampler; Model AN-200) and inspired at a flow rate of 28.3 L/min., thereby dispersing the dry powder inhalation in the capsule and measuring the residual active ingredient in the capsule and in the inhaler device as well as the distribution of the active ingredient at each stage with liquid chromatography.\n(§2) A capsulated preparation (The Japanese Pharmacopeia No. 2HPMC capsules: manufactured by Shionogi Qualicaps Co., Ltd.) which was filled with about 40 mg of the prepared dry powder inhalations was prepared and mounted on an inhaler device (Jethaler; Unisia Jecs Corp.) The Jethaler was then attached to the mouthpiece of a cascade impactor (Andersen sampler; Model AN-200) and inspired at a flow rate of 28.3 L/min., thereby dispersing the dry powder inhalation in the capsule and measuring the residual active ingredient in the capsule and in the inhaler device as well as the distribution of the active ingredient at each stage with liquid chromatography.\nas §1, with “A capsulated preparation (The” for “Capsulated preparations (The”, “which was” for “which were”, “mg” for “mg each”, “chromatography. […]” for “chromatography.”\nas §2, with “2 HPMC” for “2HPMC”, “Ltd.)” for “Ltd.) which was”, “inhalation” for “inhalations”"}, "[2]": {"assay": "Dispersibility of active ingredient from carrier particles, laser diffraction particle size analyzer", "format": "physicochemical", "conditions": "Example 17: S-36496 10%, micronized lactose 1%, carrier trehalose 89%, particles of 10 μm or less"}, "[3]": {"conditions": "Example 10: S-36496 3.2%, carrier lactose 95.8%, micronized lactose 1.0%"}, "[4]": {"conditions": "Example 17: S-36496 10%, micronized lactose 1%, carrier trehalose 89%, Vertical Granulator 5 min"}, "[5]": {"conditions": "micronized lactose 1%, carrier trehalose 89% of particle size 48.6 μm"}, "[6]": {"conditions": "micronized lactose 1%, carrier trehalose 89% of particle size 81.0 μm"}, "[7]": {"conditions": "micronized lactose 1%, carrier trehalose 89% of particle size 97.9 μm"}, "[8]": {"conditions": "micronized lactose 1%, erythritol carrier 89% of mean particle diameter 53.8 μm"}, "[9]": {"conditions": "micronized lactose 1%, erythritol carrier 89% of mean particle diameter 81.6 μm"}, "[10]": {"conditions": "micronized lactose 1%, erythritol carrier 89% of mean particle diameter 155.9 μm"}}, "data": [{"molecule": "CC(C)c1csc(COc2cccc(CN(CCCCNS(=O)(=O)c3ccc(Cl)cc3)S(=O)(=O)c3ccccc3C(=O)O)c2)n1", "note": "[Example S-36496, 2-{N-[4-(4-chlorobenzenesulfonylamino)butyl]-N-{3-[(4-isopropyl-2-thiazoyl)methoxy]benzyl}}sulfamoylbenzenolic acid]", "values": [{"measurement": "Residual and Distributed Fractions of Active Ingredient (%): Capsule", "setting": "[1]; [3]", "value": 8.2, "unit": "%"}, {"measurement": "Residual and Distributed Fractions of Active Ingredient (%): Inhaler device", "setting": "[1]; [3]", "value": 19.3, "unit": "%"}, {"measurement": "Residual and Distributed Fractions of Active Ingredient (%): Stage 0", "setting": "[1]; [3]", "value": 19.5, "unit": "%"}, {"measurement": "Residual and Distributed Fractions of Active Ingredient (%): Stage 1", "setting": "[1]; [3]", "value": 9.1, "unit": "%"}, {"measurement": "Residual and Distributed Fractions of Active Ingredient (%): Stages 2–7", "setting": "[1]; [3]", "value": 18.2, "unit": "%"}, {"measurement": "Residual and Distributed Fractions of Active Ingredient (%): Throat", "setting": "[1]; [3]", "value": 25.7, "unit": "%"}, {"measurement": "Residual and Distributed Fractions of Active Ingredient (%): Capsule", "setting": "[1]; [4]", "value": 7.3, "unit": "%"}, {"measurement": "Residual and Distributed Fractions of Active Ingredient (%): Inhaler device", "setting": "[1]; [4]", "value": 19.4, "unit": "%"}, {"measurement": "Residual and Distributed Fractions of Active Ingredient (%): Stage 0", "setting": "[1]; [4]", "value": 22.3, "unit": "%"}, {"measurement": "Residual and Distributed Fractions of Active Ingredient (%): Stage 1", "setting": "[1]; [4]", "value": 5.8, "unit": "%"}, {"measurement": "Residual and Distributed Fractions of Active Ingredient (%): Stages 2–7", "setting": "[1]; [4]", "value": 30.2, "unit": "%"}, {"measurement": "Residual and Distributed Fractions of Active Ingredient (%): Throat", "setting": "[1]; [4]", "value": 15.0, "unit": "%"}, {"measurement": "Residual and Distributed Fractions of Active Ingredient: Capsule", "setting": "[1]; [5]", "value": 9.0, "unit": "%"}, {"measurement": "Residual and Distributed Fractions of Active Ingredient: Inhaler device", "setting": "[1]; [5]", "value": 24.2, "unit": "%"}, {"measurement": "Residual and Distributed Fractions of Active Ingredient: Stage 0", "setting": "[1]; [5]", "value": 24.7, "unit": "%"}, {"measurement": "Residual and Distributed Fractions of Active Ingredient: Stage 1", "setting": "[1]; [5]", "value": 2.9, "unit": "%"}, {"measurement": "Residual and Distributed Fractions of Active Ingredient: Stages 2–7", "setting": "[1]; [5]", "value": 6.4, "unit": "%"}, {"measurement": "Residual and Distributed Fractions of Active Ingredient: Throat", "setting": "[1]; [5]", "value": 32.8, "unit": "%"}, {"measurement": "Residual and Distributed Fractions of Active Ingredient: Capsule", "setting": "[1]; [6]", "value": 4.9, "unit": "%"}, {"measurement": "Residual and Distributed Fractions of Active Ingredient: Inhaler device", "setting": "[1]; [6]", "value": 19.1, "unit": "%"}, {"measurement": "Residual and Distributed Fractions of Active Ingredient: Stage 0", "setting": "[1]; [6]", "value": 18.4, "unit": "%"}, {"measurement": "Residual and Distributed Fractions of Active Ingredient: Stage 1", "setting": "[1]; [6]", "value": 2.0, "unit": "%"}, {"measurement": "Residual and Distributed Fractions of Active Ingredient: Stages 2–7", "setting": "[1]; [6]", "value": 31.4, "unit": "%"}, {"measurement": "Residual and Distributed Fractions of Active Ingredient: Throat", "setting": "[1]; [6]", "value": 24.2, "unit": "%"}, {"measurement": "Residual and Distributed Fractions of Active Ingredient: Capsule", "setting": "[1]; [7]", "value": 5.8, "unit": "%"}, {"measurement": "Residual and Distributed Fractions of Active Ingredient: Inhaler device", "setting": "[1]; [7]", "value": 25.1, "unit": "%"}, {"measurement": "Residual and Distributed Fractions of Active Ingredient: Stage 0", "setting": "[1]; [7]", "value": 18.2, "unit": "%"}, {"measurement": "Residual and Distributed Fractions of Active Ingredient: Stage 1", "setting": "[1]; [7]", "value": 5.8, "unit": "%"}, {"measurement": "Residual and Distributed Fractions of Active Ingredient: Stages 2–7", "setting": "[1]; [7]", "value": 17.9, "unit": "%"}, {"measurement": "Residual and Distributed Fractions of Active Ingredient: Throat", "setting": "[1]; [7]", "value": 27.2, "unit": "%"}, {"measurement": "Capsule, residual active ingredient", "setting": "[1]; [8]", "value": 3.0, "unit": "%"}, {"measurement": "Inhaler device, residual active ingredient", "setting": "[1]; [8]", "value": 18.2, "unit": "%"}, {"measurement": "Stage 0, distribution of active ingredient", "setting": "[1]; [8]", "value": 28.9, "unit": "%"}, {"measurement": "Stage 1, distribution of active ingredient", "setting": "[1]; [8]", "value": 3.5, "unit": "%"}, {"measurement": "Stages 2–7, lung delivery fraction", "setting": "[1]; [8]", "value": 24.4, "unit": "%"}, {"measurement": "Throat, distribution of active ingredient", "setting": "[1]; [8]", "value": 22.0, "unit": "%"}, {"measurement": "Capsule, residual active ingredient", "setting": "[1]; [9]", "value": 2.6, "unit": "%"}, {"measurement": "Inhaler device, residual active ingredient", "setting": "[1]; [9]", "value": 14.6, "unit": "%"}, {"measurement": "Stage 0, distribution of active ingredient", "setting": "[1]; [9]", "value": 21.8, "unit": "%"}, {"measurement": "Stage 1, distribution of active ingredient", "setting": "[1]; [9]", "value": 3.8, "unit": "%"}, {"measurement": "Stages 2–7, lung delivery fraction", "setting": "[1]; [9]", "value": 40.4, "unit": "%"}, {"measurement": "Throat, distribution of active ingredient", "setting": "[1]; [9]", "value": 16.9, "unit": "%"}, {"measurement": "Capsule, residual active ingredient", "setting": "[1]; [10]", "value": 2.5, "unit": "%"}, {"measurement": "Inhaler device, residual active ingredient", "setting": "[1]; [10]", "value": 2.9, "unit": "%"}, {"measurement": "Stage 0, distribution of active ingredient", "setting": "[1]; [10]", "value": 66.4, "unit": "%"}, {"measurement": "Stage 1, distribution of active ingredient", "setting": "[1]; [10]", "value": 15.2, "unit": "%"}, {"measurement": "Stages 2–7, lung delivery fraction", "setting": "[1]; [10]", "value": 11.3, "unit": "%"}, {"measurement": "Throat, distribution of active ingredient", "setting": "[1]; [10]", "value": 1.7, "unit": "%"}, {"measurement": "Dispersibility of drugs (active ingredient) (%)", "setting": "[2]; Spray Pressure 0.2 kg/cm^2", "value": 8.3, "unit": "%"}, {"measurement": "Dispersibility of drugs (active ingredient) (%)", "setting": "[2]; Spray Pressure 0.3 kg/cm^2", "value": 9.4, "unit": "%"}]}]}
